The values below come from patent publication US4952493A, “Peptide substrates for detecting virus-specified protease activity” (priority 1987, dated 1990).

The subject of the test is virus-specified protease activity in extracts of Poliovirus Type 2 infected HeLa-O cells. Format: biochemical. As to conditions: pH 5.

Several values for one entry are separate records, joined by “and”; a condition that tells them apart may be missing. Identical values can stand only once. Numbered stars: 1 amine (or outer) side, 2 acyl side, 3 side chain; on linkers, the order of the positions; unused ones are H or OH. Peptide text beside a SMILES is read from it. * marks the point of attachment. AMC = Cc1cc(=O)oc2cc(N*)ccc12; Suc = O=C(CCC(=O)[*:2])[*:1]

With `Cc1cc(=O)oc2cc(NC(=O)[C@H](CCC(N)=O)NC(=O)[C@H](CC(C)C)NC(=O)CNC(=O)[C@H](Cc3ccccc3)NC(=O)CCC(=O)O)ccc12` [Suc-Phe-Gly-Leu-Gln-AMC] (Suc-FGLQ-{AMC}), the “Protease Activity, AMC Substrate” value was 22.5 and 11.4.
